In brackets after ≈: the same amount, converted by molar mass. Where two headings read alike, the source gives them in different places.
Tests used:
C. auris B11245 [1] = format: cell-based, Candida auris; settings: RPMI1640, 37 °C, 48 h, CAS: paradoxical growth; for MIC of antifungal in combination with KKOO: MIC = <20% growth; for MIC of antifungal in combination with KKOO-NH2: MIC = well with <20% growth
Description: (§1) All microdilution assays with fungi were carried out in accordance with CLSI protocols from M27 for yeasts and M38 for filamentous fungi, respectively, unless otherwise specified.[64],[65] Briefly, 96-well plates were charged with RPMI1640 media, with operating volume in the first column, 200 μL, and half operating volume, 100 μL, in the remaining wells. Drug stock solution in DMSO was aliquoted into the first well in each row. Half of the volume in the dosed well was serially diluted 2-fold until column 11. Column 11 was used as the negative growth control, and column 12 was used as the positive growth control. ON yeast cultures in YPD were washed twice in DD-H2O, resuspended in PBS, and adjusted to 5000 cfu/mL in RPMI. The 96-well plate was inoculated with 100 μL aliquots of cell suspension per well. Plates were incubated at 37 °C for 2 days.
(§2) To assess drug synergy, the initial media charged to the plate contained the peptide at twice the final operating concentration; the remaining processing steps were identical to the MIC experiment. Upon addition of 100 μL of inoculant, the final operating concentration was achieved. Control MIC plates were prepared alongside drug synergy plates to account for the day-to-day variability in any individual MIC. FIC index is computed using eq 1. All MIC assays and drug synergy assays were completed with two technical replicates per 96-well plate and a minimum of two biological replicates per drug combination. If a difference in MIC between the two technical replicates on the plate were observed, only the higher concentration was reported as the MIC to reduce the possibility of type 1 error (false positive) [drawing 1] 1

Cg FKS1 S629P = assay: Drug synergy (MIC in peptide-supplemented media); format: cell-based, Candida glabrata; settings: RPMI1640, 37 °C, 48 h
Description: as §1, §2

Cg FKS2 S663P = assay: Drug synergy (MIC in peptide-supplemented media); format: cell-based, Candida glabrata; settings: RPMI1640, 37 °C, 48 h
Description: as §1, §2

C. glabrata 2001 [2] = assay: microbe, parasite or virus in culture; format: cell-based, Candida glabrata; settings: Nakaseomyces glabratus, 2001; compound alone; RPMI1640, 37 °C, 48 h; read-out: MIC
Description: as §1

C. glabrata FKS2-S663P = assay: microbe, parasite or virus in culture; format: cell-based, Candida glabrata; settings: Nakaseomyces glabratus, FKS2S663P, 48 h
Description: as §1

C. glabrata FKS1-S629P = assay: microbe, parasite or virus in culture; format: cell-based, Candida glabrata; settings: Nakaseomyces glabratus, FKS1S629P, 48 h
Description: as §1

C. glabrata 2001 [3] = format: cell-based, Candida glabrata; settings: RPMI1640, 37 °C, 48 h
Description: as §1, §2

C. albicans SC5413 = format: cell-based, Candida albicans; settings: RPMI1640, 37 °C, 48 h; for MIC of antifungal in combination with KKOO: azole MICs unclear (intermediate phenotype); for MIC of antifungal in combination with KKOO-NH2: azole MICs could not be determined (intermediate phenotype)
Description: as §1, §2

A. fumigatus AF293 = assay: microbe, parasite or virus in culture; format: cell-based, Aspergillus fumigatus; settings: Aspergillus fumigatus, AF293, 48 h
Description: as §1

Cn MRL862 = format: cell-based, Cryptococcus neoformans; settings: RPMI1640, 37 °C, 48 h
Description: as §1, §2

C. auris B11245 [4] = assay: microbe, parasite or virus in culture; format: cell-based, Candida auris; settings: Candidozyma auris, B11245; compound alone; RPMI1640, 37 °C, 48 h; * = paradoxical growth observed (CAS); read-out: MIC
Description: as §1

Q: `CCC(C)n1ncn(-c2ccc(N3CCN(c4ccc(OCC5COC(Cn6cncn6)(c6ccc(Cl)cc6Cl)O5)cc4)CC3)cc2)c1=O` (stereo not shown) [ITR, itraconazole] was tested. Which “MIC of antifungal in combination with KKOO” value (C. auris B11245 [1]; +0 μg/mL KKOO (control)) did it give?
A: 0.5 µg/mL

Q: And the “MIC of antifungal in combination with KKOO-NH2” value (“MIC … with KKOO-NH2” below) (C. auris B11245 [1]; +0 μg/mL KKOO-NH2 (control))?
A: 0.5 µg/mL

Q: What about the “MIC … with KKOO-NH2” value (C. auris B11245 [1]; +1 μg/mL KKOO-NH2) of the same molecule?
A: 0.125 µg/mL

Q: What about the “MIC of antifungal in combination with KKOO” value (C. auris B11245 [1]; +1 μg/mL KKOO) of the same molecule?
A: 0.25 µg/mL

Q: And the “MIC … with KKOO-NH2” value (C. auris B11245 [1]; +2 μg/mL KKOO-NH2)?
A: 0.062 µg/mL

Q: What about the “MIC of antifungal in combination with KKOO” value (C. auris B11245 [1]; +2 μg/mL KKOO) of the same molecule?
A: 0.062 µg/mL

Q: And the “MIC … with KKOO-NH2” value (C. auris B11245 [1]; +4 μg/mL KKOO-NH2)?
A: 0.016 µg/mL

Q: And the “MIC of antifungal in combination with KKOO” value (C. auris B11245 [1]; +4 μg/mL KKOO)?
A: 0.031 µg/mL

Q: And the “MIC of antifungal in combination with KKOO” value (Cg FKS1 S629P; +0 μg/mL KKOO (control))?
A: 0.125 µg/mL

Q: And the “MIC … with KKOO-NH2” value (Cg FKS1 S629P; +0 μg/mL KKOO-NH2 (control))?
A: 0.062 µg/mL

Q: And the “MIC … with KKOO-NH2” value (Cg FKS1 S629P; +1 μg/mL KKOO-NH2)?
A: 0.031 µg/mL

Q: And the “MIC of antifungal in combination with KKOO” value (Cg FKS1 S629P; +1 μg/mL KKOO)?
A: 0.062 µg/mL

Q: And the “MIC … with KKOO-NH2” value (Cg FKS1 S629P; +2 μg/mL KKOO-NH2)?
A: 0.016 µg/mL

Q: What about the “MIC of antifungal in combination with KKOO” value (Cg FKS1 S629P; +2 μg/mL KKOO) of the same molecule?
A: 0.031 µg/mL

Q: And the “MIC … with KKOO-NH2” value (Cg FKS1 S629P; +4 μg/mL KKOO-NH2)?
A: 0.008 µg/mL

Q: What about the “MIC of antifungal in combination with KKOO” value (Cg FKS1 S629P; +4 μg/mL KKOO) of the same molecule?
A: 0.016 µg/mL

Q: And the “MIC of antifungal in combination with KKOO” value (Cg FKS2 S663P; +0 μg/mL KKOO (control))?
A: 0.031 µg/mL

Q: What about the “MIC … with KKOO-NH2” value (Cg FKS2 S663P; +0 μg/mL KKOO-NH2 (control)) of the same molecule?
A: 0.031 µg/mL

Q: What about the “MIC … with KKOO-NH2” value (Cg FKS2 S663P; +1 μg/mL KKOO-NH2) of the same molecule?
A: 0.016 µg/mL

Q: What about the “MIC of antifungal in combination with KKOO” value (Cg FKS2 S663P; +1 μg/mL KKOO) of the same molecule?
A: 0.016 µg/mL

Q: What about the “MIC … with KKOO-NH2” value (Cg FKS2 S663P; +2 μg/mL KKOO-NH2) of the same molecule?
A: 0.004 µg/mL

Q: And the “MIC of antifungal in combination with KKOO” value (Cg FKS2 S663P; +2 μg/mL KKOO)?
A: 0.016 µg/mL

Q: And the “MIC … with KKOO-NH2” value (Cg FKS2 S663P; +4 μg/mL KKOO-NH2)?
A: 0.002 µg/mL

Q: And the “MIC of antifungal in combination with KKOO” value (Cg FKS2 S663P; +4 μg/mL KKOO)?
A: 0.556 µg/mL

Q: What about the MIC (C. glabrata 2001 [2]) of the same molecule?
A: 0.5 µg/mL (≈ 0.709 µM)

Q: What about the MIC (C. glabrata FKS2-S663P) of the same molecule?
A: 0.125 µg/mL (≈ 0.177 µM)

Q: What about the MIC (C. glabrata FKS1-S629P) of the same molecule?
A: 0.125 µg/mL (≈ 0.177 µM)

Q: And the “MIC of antifungal in combination with KKOO” value (C. glabrata 2001 [3]; +0 μg/mL KKOO (control))?
A: 0.5 µg/mL

Q: What about the “MIC … with KKOO-NH2” value (C. glabrata 2001 [3]; +0 μg/mL KKOO-NH2 (control)) of the same molecule?
A: 0.5 µg/mL

Q: What about the “MIC … with KKOO-NH2” value (C. glabrata 2001 [3]; +1 μg/mL KKOO-NH2) of the same molecule?
A: 0.25 µg/mL

Q: What about the “MIC of antifungal in combination with KKOO” value (C. glabrata 2001 [3]; +1 μg/mL KKOO) of the same molecule?
A: 0.25 µg/mL

Q: What about the “MIC … with KKOO-NH2” value (C. glabrata 2001 [3]; +2 μg/mL KKOO-NH2) of the same molecule?
A: 0.125 µg/mL

Q: And the “MIC of antifungal in combination with KKOO” value (C. glabrata 2001 [3]; +2 μg/mL KKOO)?
A: 0.125 µg/mL

Q: What about the “MIC … with KKOO-NH2” value (C. glabrata 2001 [3]; +4 μg/mL KKOO-NH2) of the same molecule?
A: 0.031 µg/mL

Q: And the “MIC of antifungal in combination with KKOO” value (C. glabrata 2001 [3]; +4 μg/mL KKOO)?
A: 0.062 µg/mL

Q: What about the “MIC of antifungal in combination with KKOO” value (C. glabrata 2001 [3]; +8 μg/mL KKOO) of the same molecule?
A: 0.062 µg/mL

Q: And the “MIC of antifungal in combination with KKOO” value (C. albicans SC5413; +0 μg/mL KKOO (control))?
A: > 1 µg/mL

Q: What about the “MIC … with KKOO-NH2” value (C. albicans SC5413; +0 μg/mL KKOO-NH2 (control)) of the same molecule?
A: >1 µg/mL

Q: And the “MIC … with KKOO-NH2” value (C. albicans SC5413; +1 μg/mL KKOO-NH2)?
A: >1 µg/mL

Q: And the “MIC of antifungal in combination with KKOO” value (C. albicans SC5413; +1 μg/mL KKOO)?
A: > 1 µg/mL

Q: What about the “MIC … with KKOO-NH2” value (C. albicans SC5413; +2 μg/mL KKOO-NH2) of the same molecule?
A: >1 µg/mL

Q: And the “MIC of antifungal in combination with KKOO” value (C. albicans SC5413; +2 μg/mL KKOO)?
A: > 1 µg/mL

Q: And the “MIC … with KKOO-NH2” value (C. albicans SC5413; +4 μg/mL KKOO-NH2)?
A: >1 µg/mL

Q: What about the “MIC of antifungal in combination with KKOO” value (C. albicans SC5413; +4 μg/mL KKOO) of the same molecule?
A: > 1 µg/mL

Q: What about the “MIC of antifungal in combination with KKOO” value (C. albicans SC5413; +8 μg/mL KKOO) of the same molecule?
A: > 1 µg/mL

Q: What about the MIC (A. fumigatus AF293) of the same molecule?
A: 0.125 µg/mL (≈ 0.177 µM)

Q: And the “MIC of antifungal in combination with KKOO” value (Cn MRL862; +0 μg/mL KKOO (control))?
A: 0.062 µg/mL

Q: And the “MIC … with KKOO-NH2” value (Cn MRL862; +0 μg/mL KKOO-NH2 (control))?
A: 0.062 µg/mL

Q: And the “MIC … with KKOO-NH2” value (Cn MRL862; +1 μg/mL KKOO-NH2)?
A: 0.062 µg/mL

Q: And the “MIC of antifungal in combination with KKOO” value (Cn MRL862; +1 μg/mL KKOO)?
A: 0.031 µg/mL

Q: What about the “MIC … with KKOO-NH2” value (Cn MRL862; +2 μg/mL KKOO-NH2) of the same molecule?
A: 0.016 µg/mL

Q: And the “MIC of antifungal in combination with KKOO” value (Cn MRL862; +2 μg/mL KKOO)?
A: 0.016 µg/mL

Q: And the “MIC … with KKOO-NH2” value (Cn MRL862; +4 μg/mL KKOO-NH2)?
A: 0.004 µg/mL

Q: And the “MIC of antifungal in combination with KKOO” value (Cn MRL862; +4 μg/mL KKOO)?
A: 0.556 µg/mL

Q: And the MIC (C. auris B11245 [4])?
A: 0.5 µg/mL (≈ 0.709 µM)

From publication PMC11555678, “Improved Broad Spectrum Antifungal Drug Synergies with Cryptomycin, a Cdc50-Inspired Antifungal Peptide” (ACS Infectious Diseases, 2024)
